Values after ≈ are worked out from the molar mass of the structure shown. Active and inactive are the calls of the source. No cut-off for these calls is given here.
Experiments:
Staphylococcus aureus = experiment: Antimicrobial activity against Staphylococcus aureus DSM346 by serial dilution method; format: functional
[1] = system: Mycolicibacterium smegmatis; experiment: Antimicrobial activity against Mycobacterium smegmatis DSM44200 by serial dilution method; format: functional
Wickerhamomyces anomalus = experiment: Antimicrobial activity against Pichia anomala DSM6766 by serial dilution method; format: functional
Mucor hiemalis = experiment: Antimicrobial activity against Mucor hiemalis DSM2656 by serial dilution method; format: functional
Candida albicans = experiment: Antimicrobial activity against Candida albicans DSM1665 by serial dilution method; format: functional
Bacillus subtilis = experiment: Antimicrobial activity against Bacillus subtilis DSM10 by serial dilution method; format: functional
Micrococcus luteus = experiment: Antimicrobial activity against Micrococcus luteus DSM1790 by serial dilution method; format: functional
L929 = experiment: Cytotoxicity against mouse L929 cells assessed as reduction in cell viability by MTT assay; format: functional, cell-based
KB 3-1 = experiment: Cytotoxicity against human KB3.1 cells assessed as reduction in cell viability by MTT assay; format: functional, cell-based
[2] = Mus musculus, L929, read-out: IC50

GENTAMICIN
MIC (Staphylococcus aureus): 9.2 µg/mL

NC[C@H]1O[C@H](O[C@H]2[C@H](O)[C@@H](O[C@H]3O[C@H](CO)[C@@H](O)[C@H](N)[C@H]3O)[C@H](N)C[C@@H]2N)[C@H](O)[C@@H](O)[C@@H]1O [KANAMYCIN]
MIC [1]: 0.6 µg/mL (≈ 1.24 µM)

NYSTATIN
MIC (Wickerhamomyces anomalus): 4.6 µg/mL
MIC (Mucor hiemalis): 9.2 µg/mL
MIC (Candida albicans): 9.2 µg/mL

CN(C)[C@@H]1C(O)=C(C(N)=O)C(=O)[C@@]2(O)C(O)=C3C(=O)c4c(O)cccc4[C@@](C)(O)[C@H]3[C@H](O)[C@@H]12 [OXYTETRACYCLINE]
MIC (Bacillus subtilis): 9.2 µg/mL (≈ 20 µM)
MIC (Micrococcus luteus): 0.3 µg/mL (≈ 0.652 µM)

CC1=CC(=O)C(c2c(C=O)c(O)c(O)c3c2[C@@H](C(C)C)CC[C@@H]3C)=C(O)C1=O
MIC (Wickerhamomyces anomalus; Hansenula anomala): 100 µg/mL (≈ 260 µM)
MIC (Staphylococcus aureus): 50 µg/mL (≈ 130 µM)
MIC (Mucor hiemalis): 25 µg/mL (≈ 65 µM)
IC50 (L929; [2]): 5.5 µM
MIC [1]: 100 µg/mL (≈ 260 µM)
MIC (Bacillus subtilis): 12.5 µg/mL (≈ 32.5 µM)
MIC (Micrococcus luteus): 3.1 µg/mL (≈ 8.06 µM)
MIC (Candida albicans): 100 µg/mL (≈ 260 µM)
IC50 (KB 3-1): Not Active

COc1c(O)c2c(c3cnc4c(c13)C(=O)C=C(C)C4=O)[C@@H](C(C)C)CC[C@@H]2C
MIC (Wickerhamomyces anomalus; Hansenula anomala): 100 µg/mL (≈ 264 µM)
MIC (Staphylococcus aureus): 50 µg/mL (≈ 132 µM)
MIC (Mucor hiemalis): 50 µg/mL (≈ 132 µM)
IC50 (L929; l929): Not Active
MIC [1]: inactive
MIC (Bacillus subtilis): 6.3 µg/mL (≈ 16.6 µM)
MIC (Micrococcus luteus): 6.3 µg/mL (≈ 16.6 µM)
MIC (Candida albicans): 100 µg/mL (≈ 264 µM)
IC50 (KB 3-1): Not Active

C/C(=C\c1csc(C)n1)[C@@H]1C[C@@H]2O[C@]2(C)CCC[C@H](C)[C@H](O)[C@@H](C)C(=O)C(C)(C)[C@@H](O)CC(=O)O1 [PATUPILONE]
IC50 (L929; [2]): 0.0026 µM
